*1 amine or outer side, *2 acyl side, *3 side chain or, on linkers, in order; H or OH if unused. Where a SMILES comes first, the peptide text is derived from it. [ ]: non-standard residue; d: D form. X1 = O=C([C@H](CSS(=O)(=O)O)N[*:1])[*:2]

Data set [1] is described as follows: Stability test in frozen state (residual amount by reverse HPLC). The conditions noted are these: -80° C., 5 months, compared to native calcitonin-I. The format is physicochemical. As to the method: First, 50 μg each of the diS-sulfonated salmon calcitonin-I and salmon calcitonin-I were separately dissolved in 100 μl of 2.5 mM citrate (pH 2.8) buffer, and the solutions were frozen and stored at -80° C. After 5 months, the frozen samples were thawed, and residual diS-sulfonated salmon calcitonin-I and salmon calcitonin-I were measured by reverse HPLC.

Data set [2] can be described thus: Stability test in liquid form (residual amount by reverse HPLC). The format is physicochemical. The conditions noted are these: 37° C., 2 weeks, compared to native salmon calcitonin-I. As to the method: First, 50 μg each of the diS-sulfonated salmon calcitonin-I and salmon calcitonin-I were separately dissolved in 100 μl of 50 mM Tris-Hcl buffer solution (pH 7.2), and the solutions were stored at 37° C. After 2 weeks, the residual diS-sulfonated salmon calcitonin-I and salmon calcitonin-I were measured by reverse HPLC.

As for `CC(C)C[C@H](NC(=O)[C@H](CCCCN)NC(=O)CNC(=O)[C@H](CC(C)C)NC(=O)[C@@H](NC(=O)[C@H](CSS(=O)(=O)O)NC(=O)[C@@H](NC(=O)[C@H](CO)NC(=O)[C@H](CC(C)C)NC(=O)[C@H](CC(N)=O)NC(=O)[C@H](CO)NC(=O)[C@@H](N)CSS(=O)(=O)O)[C@@H](C)O)C(C)C)C(=O)N[C@@H](CO)C(=O)N[C@@H](CCC(N)=O)C(=O)N[C@@H](CCC(=O)O)C(=O)N[C@@H](CC(C)C)C(=O)N[C@@H](Cc1c[nH]cn1)C(=O)N[C@@H](CCCCN)C(=O)N[C@@H](CC(C)C)C(=O)N[C@@H](CCC(N)=O)C(=O)N[C@H](C(=O)N[C@@H](Cc1ccc(O)cc1)C(=O)N1CCC[C@H]1C(=O)N[C@@H](CCCNC(=N)N)C(=O)N[C@H](C(=O)N[C@@H](CC(N)=O)C(=O)N[C@H](C(=O)NCC(=O)N[C@@H](CO)C(=O)NCC(=O)N[C@H](C(=O)N1CCC[C@H]1C(N)=O)[C@@H](C)O)[C@@H](C)O)[C@@H](C)O)[C@@H](C)O` [diS-sulfonated salmon calcitonin-I] (H-[X1]SNLST[X1]VLGKLSQELHKLQTYPRTNTGSGTP-NH2), the “Stability in the frozen state (in words)” value in data set [1] is given as “remarkably stable”. The “Stability in a solution (in words)” value in data set [2] is “remarkably stable”.

The record behind these values is patent US5153308A, “S-sulfonated calcitonin derivatives” (Teijin Limited, priority 1988, dated 1992).
